Laboratory results from article PMC3974814, “In Vitro Evaluation of the Inhibitory Potential of Pharmaceutical Excipients on Human Carboxylesterase 1A and 2” (PLoS ONE, 2014).

What was measured:
[1] = target: CES1A1 and CES2; design: method as in PMID 20810539; settings: human CES enzyme activity; isoform per drug not stated; read-out: inhibition constant (Ki); cited from earlier work
[2] = target: T1, human liver microsomes (HLM) (Homo sapiens, UniProt P23141); assay: Imidapril hydrolase activity (imidaprilat formation) of HLM; type: biochemical
T1 construct: Pooled human liver microsomes (HLM) were purchased from BD Gentest; tissue BD Gentest (Woburn, MA); host or cells: pooled human liver microsomes
T1 sequence (P23141 18-567): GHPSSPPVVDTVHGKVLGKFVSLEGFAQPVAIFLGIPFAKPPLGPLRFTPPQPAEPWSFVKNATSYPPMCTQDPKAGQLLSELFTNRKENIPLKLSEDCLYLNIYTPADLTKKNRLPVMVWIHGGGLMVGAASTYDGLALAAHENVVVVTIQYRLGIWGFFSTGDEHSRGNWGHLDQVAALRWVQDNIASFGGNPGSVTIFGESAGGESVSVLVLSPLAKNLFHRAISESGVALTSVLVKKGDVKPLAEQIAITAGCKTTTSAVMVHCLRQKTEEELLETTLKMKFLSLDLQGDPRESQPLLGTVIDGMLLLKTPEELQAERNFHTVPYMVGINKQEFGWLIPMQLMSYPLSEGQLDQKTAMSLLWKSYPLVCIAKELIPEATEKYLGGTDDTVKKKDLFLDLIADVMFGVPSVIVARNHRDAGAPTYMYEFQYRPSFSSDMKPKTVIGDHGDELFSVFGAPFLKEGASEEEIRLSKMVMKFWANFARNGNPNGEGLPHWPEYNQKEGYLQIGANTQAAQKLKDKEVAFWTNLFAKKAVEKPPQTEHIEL
Method: Formation of imidaprilat from imidapril was determined according to the method described previously with a slight modification. The incubation mixture (200 μl of total volume), including the microsomes, 100 mM Tris-HCl buffer (pH 7.4) and inhibitors, was preincubated at 37°C for 2 min. The reaction was initiated by the addition of imidapril (100 μM), followed by incubation of the mixture at 37°C for 15 min. The reaction was terminated by adding 200 μl of ice-cold ethyl acetate and the mixture was next dried under N2. Cetirizine was added as an internal standard. After centrifugation at 15000 g for 5 min, imidaprilat in the supernatant (10 μl) was quantified employing a liquid chromatography-tandem mass spectrometry system. Diamonsil C18 (5 μm,150×2.1 mm) was used as the analytical column, with acetonitrile-0.1% (v/v) formic acid (1∶2, v/v) as the mobile phase at a flow rate of 0.3 mL·min^−1. […]
The inhibitory effects of 25 excipients on imidapril and CPT-11 hydrolase activities were investigated. […] All data were analysed using the mean of duplicate determinations. […]
(§1) The Ki, Km and Vmax values and inhibition types were determined by fitting the kinetic data to a competitive, noncompetitive, uncompetitive or mixed inhibition model by the Enzyme Kinetics Module using SigmaPlot 12.0 (Systat Software, Inc., San Jose, CA). […]

[3] = target: T2, recombinant human CES1A1 (Homo sapiens, UniProt P23141); assay: Imidapril hydrolase activity (imidaprilat formation) of recombinant CES1A1; type: biochemical
T2 construct: purchased BD Gentest (Woburn, MA); host or cells: baculovirus-insect cells
T2 sequence (P23141 18-567): T1 sequence (P23141 18-567)
Method: Formation of imidaprilat from imidapril was determined according to the method described previously with a slight modification. The incubation mixture (200 μl of total volume), including the microsomes, 100 mM Tris-HCl buffer (pH 7.4) and inhibitors, was preincubated at 37°C for 2 min. The reaction was initiated by the addition of imidapril (100 μM), followed by incubation of the mixture at 37°C for 15 min. The reaction was terminated by adding 200 μl of ice-cold ethyl acetate and the mixture was next dried under N2. Cetirizine was added as an internal standard. After centrifugation at 15000 g for 5 min, imidaprilat in the supernatant (10 μl) was quantified employing a liquid chromatography-tandem mass spectrometry system. Diamonsil C18 (5 μm,150×2.1 mm) was used as the analytical column, with acetonitrile-0.1% (v/v) formic acid (1∶2, v/v) as the mobile phase at a flow rate of 0.3 mL·min^−1. The calibration curve of imidaprilat in the incubation mixture was linear over a concentration range of 5–1000 ng·ml^−1 (r = 0.9991). Interday and intraday coefficients of variation of the different quality control samples were both less than 10%.
The inhibitory effects of 25 excipients on imidapril and CPT-11 hydrolase activities were investigated. These excipients were classified into 6 groups based on their chemical and physical characteristics: (1) Adhesives: HPC, PVP, CMC-Na, PEG4000, PEG6000 and sodium alginate; (2) Fillers: lactose, MCC and mannitol; (3) Co-solvents: PG, glycerin, PEG200 and PEG400; (4) Surfactants: Tween 20, Tween 80, SLS, S40, F68, Triton X-100, RH40 and EL35; (5) Absorption enhancers: lecithin and oleic acid; (6)Antioxidants: Vit.C and NaHSO3. […] All data were analysed using the mean of duplicate determinations. […]
as §1

[4] = target: T3, recombinant human CES2 (Homo sapiens, UniProt O00748); assay: p-Nitrophenyl acetate hydrolase activity of recombinant CES2; type: biochemical
T3 construct: purchased BD Gentest (Woburn, MA); host or cells: baculovirus-insect cells
T3 sequence (O00748 27-559): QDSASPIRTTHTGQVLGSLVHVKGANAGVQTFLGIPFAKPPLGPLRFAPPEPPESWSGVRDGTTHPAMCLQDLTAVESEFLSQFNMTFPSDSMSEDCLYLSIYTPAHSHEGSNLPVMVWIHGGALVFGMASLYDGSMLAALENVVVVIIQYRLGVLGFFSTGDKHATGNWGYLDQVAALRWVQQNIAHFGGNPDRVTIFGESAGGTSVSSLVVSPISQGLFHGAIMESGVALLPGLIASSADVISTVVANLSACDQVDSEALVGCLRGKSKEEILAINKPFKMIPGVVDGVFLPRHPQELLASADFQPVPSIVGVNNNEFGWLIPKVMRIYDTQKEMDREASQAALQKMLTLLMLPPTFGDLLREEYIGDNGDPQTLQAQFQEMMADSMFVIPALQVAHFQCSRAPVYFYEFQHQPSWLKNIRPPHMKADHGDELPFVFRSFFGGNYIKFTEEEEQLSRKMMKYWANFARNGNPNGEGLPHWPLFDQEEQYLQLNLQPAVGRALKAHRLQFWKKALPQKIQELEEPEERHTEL
Method: (§2) p-Nitrophenyl acetate hydrolase activity was determined according to the methods described previously.
(§3) To compare the inhibitory effects, the enzyme activities at 150 μM p-nitrophenyl acetate were examined. The concentrations of the tested excipients were 500 μM, except that F68, EL35, RH40, lecithin, PVP and Sodium alginate were 100 μg/ml. […] The concentration range of inhibitors was as follows: SLS, 0.02–0.5 μg/ml, RH40, 0.1–5 μg/ml, Tween 20, 0.5–15 μg/ml, and EL 35, 3–40 μg/ml.

[5] = target: T2, recombinant human CES1A1; assay: p-Nitrophenyl acetate hydrolase activity of recombinant CES1A1; type: biochemical
Method: as §2, §3

[6] = 150 μM p-nitrophenyl acetate, excipients 500 μM except F68, EL35, RH40, lecithin, PVP, sodium alginate 100 μg/ml

Row | SMILES | Ki [1] [nM] | inhibition type, imidapril hydrolase activity [2] | imidapril hydrolase activity, percentage of control ([3]; 100 μM imidapril, excipients 500 μM except F68, EL35, RH40, lecithin, PVP, sodium alginate 100 μg/ml, control 1.83 nmol/min/mg) [%] | inhibition type, imidapril hydrolase activity ([3]; recombinant CES1A1) | Ki, imidapril hydrolase activity ([3]; recombinant CES1A1, imidapril 25-200 μM, mean ± S.E.) [µg/mL] | p-nitrophenyl acetate hydrolase activity, percentage of control [4, 6] | IC50, p-nitrophenyl acetate hydrolase activity ([4]; 150 μM substrate) [µg/mL] | p-nitrophenyl acetate hydrolase activity, percentage of control [5, 6] [%] | IC50, p-nitrophenyl acetate hydrolase activity ([5]; 150 μM substrate) [µg/mL]
1 | CCC(C)(C)C(=O)O[C@H]1C[C@@H](C)C=C2C=C[C@H](C)[C@H](CC[C@@H]3C[C@@H](O)CC(=O)O3)[C@H]21 [simvastatin] | 110 | – | – | – | – | – | – | – | –
2 | Cc1c(C)c2c(c(C)c1O)CCC(C)(COc1ccc(CC3SC(=O)NC3=O)cc1)O2 (stereo not shown) [troglitazone] | 620 | – | – | – | – | – | – | – | –
3 | CCCCCCCCCCCCOS(=O)(=O)[O-].[Na+] [SLS, sodium lauryl sulphate] | – | competitive-type | 2.9 | competitive-type | 0.04 ± 0.01 | 30–60% | 0.30 | 3.6 | 0.20
